Measurements published in patent US8309726B2, “Substituted piperazine compounds of formula 8” (Council of Scientific & Industrial Research, priority 2007, dated 2012).

Assays:
calf thymus (CT) DNA = assay: Thermal denaturation studies with duplex-form calf thymus DNA; format: binding; details: for ΔTm (° C.) after incubation at 37° C. for 0 h / ΔTm (° C.) after incubation at 37° C. for 18 h / ΔTm (° C.) after incubation at 37° C. for 36 h: [ANCD]/[DNA] molar ratio 1:5, CT-DNA 100 μM, ligand 20 μM, sodium phosphate buffer pH 7.00; for ΔTm (° C.) after incubation at 37° C. for 0 h: 0 h at 37° C.; for ΔTm (° C.) after incubation at 37° C. for 18 h: 18 h at 37° C.; for ΔTm (° C.) after incubation at 37° C. for 36 h: 36 h at 37° C.; for Course of ΔTm over incubation at 0 hr, 18 hr and 36 hr: incubation at 37° C., [ANCD]/[DNA] 1:5
Method: Compounds were subjected to thermal denaturation studies with duplex-form calf thymus DNA (CT-DNA) using an adaptation of a reported procedure. Working solutions in aqueous buffer (10 mM NaH2PO4/Na2HPO4, 1 mM Na2EDTA, pH 7.00+/−0.01) containing CT-DNA (100 μM in phosphate) and the PBD (20 μM) were prepared by addition of concentrated ANCD solutions in DMSO to obtain a fixed [ANCD]/[DNA] molar ratio of 1:5. The DNA-ANCD solutions were incubated at 37° C. for 0, 18, and 36 h prior to analysis. Samples were monitored at 260 nm using a Beckman DU-7400 spectrophotometer fitted with high performance temperature controller, and heating was applied at 1° C. min^−1 in the 40-90° C. range. DNA helix coil transition temperatures (Tm) were obtained from the maxima in the (dA260)/dT derivative plots. Results are given as the mean+/−standard deviation from three determinations and are corrected for the effects of DMSO co-solvent using a linear correction term. Drug-induced alterations in DNA melting behaviour are given by: ΔTm=Tm (DNA+ANCD)−Tm (DNA alone), where the Tm value for the ANCD-free CT-DNA is 69.0+/−0.01.

Breast cancer cell lines = assay: In vitro cytotoxicity, breast panel; format: cell-based; details: Homo sapiens, average of six to nine different cancer cell lines, 48 h, SRB, read-out: Log GI50 (concentration in mol/L causing 50% growth inhibition) (converted)
Method: (§1) In vitro evaluation of cytotoxic activity: Compounds were evaluated for in vitro anticancer activity against sixty human tumour cells derived from nine cancer types (colon, prostate, oral, lung, cervix and breast cancer) as shown in (Table 1, 2 and 3) 8b, 8c, 8d, and 8e, were evaluated for in vitro anticancer activity against sixty human tumour cells derived from nine cancer types (leukemia, non-small-cell lung, colon, CNS, melanoma, ovarian, prostate, and breast cancer) as shown in (Table 2 and 3). For the compound, dose response curves for each cell line were measured at a minimum of five concentrations at 10 fold dilutions. A protocol of 48 h continuous drug exposure was used and a sulforhodamine B (SRB) protein assay was used to estimate cell viability or growth. The concentration causing 50% cell growth inhibition (GI50), total cell growth inhibition (TGI 0% growth) and 50% cell death (LC50, −50% growth) compared with the control was calculated. The mean graph midpoint values of log10 TGI and log10 LC50 as well as log10 GI50 for 8a, 8b, 8c, 8d, and 8e, are listed in (Table 2 and 3).
(§2) Each cancer type represents the average of six to nine different cancer cell lines. The compounds 8a, 8b, 8c, 8d, 8e and 8f were evaluated for in vitro anticancer activity against sixty human tumour cells derived from nine cancer types (leukemia, colon, prostate, renal melanoma CNS, lung, cervix and breast cancer) as shown in Table 3. Compounds 8b, 8c, 8d and 8e show promising cytotoxicity against some cancer cell lines (Table 2). Compounds 8b, 8c, 8d and 8e have been evaluated for their in vitro cytotoxicity in selected human cancer cell lines of colon (Colo205), lung (Hop-62), cervix (SiHa), prostate (DU145, PC3), oral (DWD, HT1080), and breast (MCF7, Zr-75-1) origin. A protocol of 48 h continuous drug exposure has been used and an […] has been used to estimate cell viability or growth. The results are expressed as percent of cell growth determined relative to that of untreated control cells. […] In the breast cancer panel, the growth of BT-549, MCF-7 cell lines are 10.3, and 17.6. In the prostate cancer panel, the growth of DU-145, PC-3 cell lines are 11.3, and 19.2. The GI50 values of compound In the CNS cancer panel, the growth of SF-539, SNB-75 cell lines are […]. […] In vitro cytotoxicity of compounds 8a, and 8b in selected cancer cell lines has been illustrated in Table 3. The average GI50 values for each cancer panel of compounds 8b, 8c, 8d and 8e have been illustrated in above Table 2 and 3

Renal cancer cell lines = assay: In vitro cytotoxicity, renal panel; format: cell-based; details: Homo sapiens, average of six to nine different cancer cell lines, 48 h, SRB, read-out: Log GI50 (concentration in mol/L causing 50% growth inhibition) (converted)
Method: as §1, §2

[1] = test system: Leukemia cancer cell lines; assay: In vitro cytotoxicity, leukemia panel; format: cell-based; details: Homo sapiens, average of six to nine different cancer cell lines, 48 h, SRB, read-out: Log GI50 (concentration in mol/L causing 50% growth inhibition) (converted)
Method: as §1, §2

[2] = test system: Prostate cancer cell lines; assay: In vitro cytotoxicity, prostate panel; format: cell-based; details: Homo sapiens, average of six to nine different cancer cell lines, 48 h, SRB, read-out: Log GI50 (concentration in mol/L causing 50% growth inhibition) (converted)
Method: as §1, §2

[3] = test system: Melanoma cancer cell lines; assay: In vitro cytotoxicity, melanoma panel; format: cell-based; details: Homo sapiens, average of six to nine different cancer cell lines, 48 h, SRB, read-out: Log GI50 (concentration in mol/L causing 50% growth inhibition) (converted)
Method: as §1, §2

[4] = test system: Ovarian cancer cell lines; assay: In vitro cytotoxicity, ovarian panel; format: cell-based; details: Homo sapiens, average of six to nine different cancer cell lines, 48 h, SRB, read-out: Log GI50 (concentration in mol/L causing 50% growth inhibition) (converted)
Method: as §1, §2

human tumour cell lines = assay: In vitro anticancer activity against sixty human tumour cell lines (NCI, SRB assay); format: cell-based
Method: as §1, §2

CNS cancer cell lines = assay: In vitro cytotoxicity, CNS panel; format: cell-based; details: Homo sapiens, average of six to nine different cancer cell lines, 48 h, SRB, read-out: Log GI50 (concentration in mol/L causing 50% growth inhibition) (converted)
Method: as §1, §2

Colon cancer cell lines = assay: In vitro cytotoxicity, colon panel; format: cell-based; details: Homo sapiens, average of six to nine different cancer cell lines, 48 h, SRB, read-out: Log GI50 (concentration in mol/L causing 50% growth inhibition) (converted)
Method: as §1, §2

[5] = test system: Nonsmall-cell-lung cancer cell lines; assay: In vitro cytotoxicity, non-small-cell lung panel; format: cell-based; details: Homo sapiens, average of six to nine different cancer cell lines, 48 h, SRB, read-out: Log GI50 (concentration in mol/L causing 50% growth inhibition) (converted)
Method: as §1, §2

Row | SMILES | ΔTm (° C.) after incubation at 37° C. for 0 h (calf thymus (CT) DNA) [°C] | ΔTm (° C.) after incubation at 37° C. for 18 h (calf thymus (CT) DNA) [°C] | ΔTm (° C.) after incubation at 37° C. for 36 h (calf thymus (CT) DNA) [°C] | Course of ΔTm over incubation at 0 hr, 18 hr and 36 hr (calf thymus (CT) DNA) | GI50 (Breast cancer cell lines) [µM] | GI50 (Renal cancer cell lines) [µM] | GI50 [1] [µM] | GI50 [2] [µM] | GI50 [3] [µM] | GI50 [4] [µM] | Log10LC50 mean graph midpoint (MG_MID) (human tumour cell lines; 50% cell death, 48 h continuous drug exposure, SRB assay) | Log10GI50 mean graph midpoint (MG_MID) (human tumour cell lines; 50% cell growth inhibition, 48 h continuous drug exposure, SRB assay) | GI50 (human tumour cell lines; Homo sapiens, sixty cell lines in nine cell panels) [µM] | antiproliferative activity (human tumour cell lines; against most of the tested cell lines) | Log10TGI50 mean graph midpoint (MG_MID) (human tumour cell lines; total cell growth inhibition, 48 h continuous drug exposure, SRB assay) | GI50 (CNS cancer cell lines) [µM] | GI50 (Colon cancer cell lines) [µM] | GI50 [5] [µM]
1 | COc1cc(C(=O)N2CCN(c3ccccc3OC)CC2)c(N)cc1OCCCN1CCN(c2ccccc2OC)CC1 [Compound 11, (2-amino-5-methoxy-4-3-[4-(2-methoxyphenyl)piperazino]propoxyphenyl)[4-(2-methoxyphenyl)piperazino]methanone] | 1.4 | 2.1 | 2.1 | gradually increased | – | – | – | – | – | – | – | – | – | – | – | – | – | –
2 | COc1cc(C(=O)N2CCN(c3ccccc3OC)CC2)c(N)cc1OCc1ccccc1 [Compound 8a, [2-amino-4-(benzyloxy)-5-methoxyphenyl][4-(2-methoxyphenyl)piperazino]methanone] | 1.2 | 1.7 | 2.2 | gradually increased | 3.39 | 5.62 | 5.5 | 6.61 | 4.47 | 5.75 | −4.19 | −5.47 | < 20 | nanomolar to low micromolar concentrations | −5.24 | 5.89 | 8.51 | 3.63
